The record followed here is patent US10301280B2 (Plexxikon Inc., priority 2012, dated 2019).

In general, IC50 refers to the concentration that gives 50% inhibition. High values mean weaker potency, low ones greater potency.

For assay [1], the target named is c-kit mutant D816V (Homo sapiens (Human), UniProt P10721, D816V/DEL694-753). As to the kind of experiment: c-Kit mutant D816V biochemical assay (AlphaScreen). The settings on record: c-kit D816V biochemical inhibitory activity. As to the method:
The c-kit mutant D816V (or kinase domain thereof) is an active kinase in AlphaScreen. IC50 values are determined with respect to inhibition of c-Kit mutant D816V kinase activity, where inhibition of phosphorylation of a peptide substrate is measured as a function of compound concentration. Compounds to be tested were dissolved in DMSO to a concentration of 20 mM. These were diluted 30 μl into 120 μl of DMSO (4 mM) and 1 μl was added to an assay plate. These were then serially diluted 1:3 (50 μl to 100 μl DMSO) for a total of 8 points. Plates were prepared such that each kinase reaction is 20 μl in 1× kinase buffer (25 mM HEPES, pH 7.2, 8 mM MgCl2, 2 mM MnCl2, 50 mM NaCl, 0.01% Brij, 1 mM DTT, 0.01% BSA), 5% DMSO and 10 μM ATP. Substrate was 30 nM biotin-(E4Y)10 (EMD Millipore, Cat#12-440). C-kit mutant D816V kinase was at 0.75 ng per sample. After incubation of the kinase reaction for 30 minutes at room temperature, 5 μl of donor beads (Streptavidin coated beads (Perkin Elmer Life Science) final concentration 7.5 μg/ml) in stop buffer (25 mM Hepes pH 7.5, 100 mM EDTA, 0.01% BSA) was added, the sample was mixed and incubated for 20 minutes at room temperature before adding 5 μl of acceptor beads (PY20 coated beads (Perkin Elmer Life Science) final concentration 7.5 ug/ml) in stop buffer. The samples were incubated for 60 minutes at room temperature and the signal per well was read on EnVision reader. Phosphorylated substrate results in binding of the PY20 antibody and association of the donor and acceptor beads such that signal correlates with kinase activity. The signal vs. compound concentration was used to determine the IC50.
Recombinant c-kit mutant D816V (residues 551-934, kinase insertion domain residues 694-753 deleted) with a 6x-histidine N-terminal tag was expressed in E. coli Arctic Express (DE3) RIL (Stratagene). Cells were grown in Terrific Broth (TB) media to an OD600 of 0.6 at 37° C. at which temperature was reduced to 10° C., protein was induced with 1.0 mM IPTG for 18 hours and harvested by centrifugation at 8000×g for 20 minutes. Cells were re-suspended in 0.1M KPO4 pH 8.0, 250 mM NaCl, 10% Glycerol, 0.75% NP-40, 25 mM Imidazole, 5 mM BME with 0.2 mg/ml Lysosyme, 2.0 mM PMSF, 25 μg/ml DNAse I, incubated in ice for 30 minutes and lyzed with a cell disruptor (MicroFluidics). The lysate was clarified by centrifugation at 20,000×g for 2 hours. The protein was captured with Talon resin (Clontech). Contaminating proteins were washed off with 25 mM Tris-HCl pH 8.3, 250 mM NaCl, 15% Glycerol, 1% Triton X-100, and protein eluted using 100 mM EDTA. The protein was further purified using Gel Filtration column 26/600 Superdex 200 (GE) in 50 mM Tris-HCl, pH 8.0, 250 mM NaCl, 15% Glycerol, 5 mM BME. The protein was aliquoted and flash-frozen in liquid Nitrogen.
Background: In Alpha technology, singlet oxygen from a donor bead excites a nearby acceptor bead.

Assay [2] concerns BaF3-FL KIT D816V or BaF3-FL KIT V560G/D816V cell line. Put plainly: Cell-based assays of c-Kit mutant kinase activity (cell growth, ATPlite). The settings on record: at least one of the c-kit cell assays of Example 26. In a few lines:
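BaF3 cells dependent on full-length human KIT (D816V or V560G/D816V) seeded at 1×10^4 cells/well in RPMI with 10% FBS. Eight-point 1:3 dilutions from 10 μM top final (0.2% DMSO), 3 days at 37° C., 5% CO2. ATPlite luminescence gave IC50.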
In general terms: Cellular ATP, detected with luciferase, serves as a proxy for viable cell number.

Sequence of c-kit mutant D816V (P10721 other isoform, or with tags, fused parts or gaps D816V/del 694-753): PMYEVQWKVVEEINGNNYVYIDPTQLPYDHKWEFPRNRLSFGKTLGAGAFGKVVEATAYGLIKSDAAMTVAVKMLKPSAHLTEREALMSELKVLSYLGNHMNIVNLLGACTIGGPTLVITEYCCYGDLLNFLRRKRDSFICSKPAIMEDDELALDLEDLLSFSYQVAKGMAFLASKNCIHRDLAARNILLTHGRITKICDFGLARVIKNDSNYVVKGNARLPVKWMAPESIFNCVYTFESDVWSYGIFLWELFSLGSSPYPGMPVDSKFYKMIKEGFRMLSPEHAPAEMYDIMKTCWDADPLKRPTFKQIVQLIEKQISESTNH

With `Cc1n[nH]c(C(=O)Nc2cnc3[nH]c(-c4cc(OC(F)(F)F)ccc4Cl)cc3c2)c1C` [P-2113, N-[2-[2-chloro-5-(trifluoromethoxy)phenyl]-1H-pyrrolo[2,3-b]pyridin-5-yl]-3,4-dimethyl-1H-pyrazole-5-carboxamide], the values for the IC50 in assay [1] and in assay [2] were 1 to 10 µM and less than 10000 nM, respectively.
The matching figures for `Cc1cc2ncc(NC(=O)c3n[nH]c(C)c3C)cn2n1` [P-2114, 4,5-dimethyl-N-(2-methylpyrazolo[1,5-a]pyrimidin-6-yl)-1H-pyrazole-3-carboxamide]: 1 to 10 µM and less than 10000 nM.
The matching figures for `Cc1n[nH]c(C(=O)Nc2cnc3[nH]c(N4CCCC4)cc3c2)c1C` [P-2115, 3,4-dimethyl-N-(2-pyrrolidin-1-yl-1H-pyrrolo[2,3-b]pyridin-5-yl)-1H-pyrazole-5-carboxamide]: 1 to 10 µM and less than 10000 nM.
On to `Cc1n[nH]c(C(=O)Nc2cnc3[nH]c(-c4ccc(C#N)c(N5CCCC5)c4)cc3c2)c1C` [P-2120, N-[2-(4-cyano-3-pyrrolidin-1-yl-phenyl)-1H-pyrrolo[2,3-b]pyridin-5-yl]-3,4-dimethyl-1H-pyrazole-5-carboxamide], for which the figures for the IC50 in assay [1] and in assay [2] were 0.0001 to 1 µM and less than 10000 nM, respectively.
The matching figures for `CNS(=O)(=O)c1cccc(-c2cc3cc(NC(=O)c4[nH]nc(C)c4C)cnc3[nH]2)c1` [P-2121, 3,4-dimethyl-N-[2-[3-(methylsulfamoyl)phenyl]-1H-pyrrolo[2,3-b]pyridin-5-yl]-1H-pyrazole-5-carboxamide]: 0.0001 to 1 µM and less than 10000 nM.
The matching figures for `Cc1n[nH]c(C(=O)Nc2cnc3[nH]c(-c4ccc(Cl)cc4)cc3c2)c1C` [P-2122, N-[2-(4-chlorophenyl)-1H-pyrrolo[2,3-b]pyridin-5-yl]-3,4-dimethyl-1H-pyrazole-5-carboxamide]: 0.0001 to 1 µM and less than 10000 nM.
The matching figures for `Cc1ccc(-c2cc3cc(NC(=O)c4[nH]nc(C)c4C)cnc3[nH]2)cn1` [P-2123, 3,4-dimethyl-N-[2-(6-methyl-3-pyridyl)-1H-pyrrolo[2,3-b]pyridin-5-yl]-1H-pyrazole-5-carboxamide]: 0.0001 to 1 µM and less than 10000 nM.
With `Cc1n[nH]c(C(=O)Nc2cnc3[nH]c(-c4ccccc4)nc3c2)c1C` [P-2145, 3,4-dimethyl-N-(2-phenyl-3H-imidazo[4,5-b]pyridin-6-yl)-1H-pyrazole-5-carboxamide], the IC50 in assay [1] was 0.0001 to 1 µM; in assay [2], less than 10000 nM.
The matching figures for `Cc1n[nH]c(C(=O)Nc2cnc3[nH]c(-c4cccc(F)c4C)cc3c2)c1C` [P-2146, N-[2-(3-fluoro-2-methyl-phenyl)-1H-pyrrolo[2,3-b]pyridin-5-yl]-3,4-dimethyl-1H-pyrazole-5-carboxamide]: 0.0001 to 1 µM and less than 10000 nM.
The matching figures for `Cc1n[nH]c(C(=O)Nc2cnc3[nH]c(-c4ccc(OCC5(C)COC5)cc4)cc3c2)c1C` [P-2149, 3,4-dimethyl-N-[2-[4-[(3-methyloxetan-3-yl)methoxy]phenyl]-1H-pyrrolo[2,3-b]pyridin-5-yl]-1H-pyrazole-5-carboxamide]: 0.0001 to 1 µM and less than 10000 nM.
The matching figures for `Cc1n[nH]c(C(=O)Nc2cnc3[nH]c(-c4ccccc4)nc3c2)c1Cl` [P-2150, 4-chloro-3-methyl-N-(2-phenyl-3H-imidazo[4,5-b]pyridin-6-yl)-1H-pyrazole-5-carboxamide]: 0.0001 to 1 µM and less than 10000 nM.
For `Cc1cc(C(=O)Nc2cnc3[nH]c(-c4ccccc4)nc3c2)[nH]n1` [P-2151, 3-methyl-N-(2-phenyl-3H-imidazo[4,5-b]pyridin-6-yl)-1H-pyrazole-5-carboxamide], the figures for the IC50 in assay [1] and in assay [2] were 1 to 10 µM and less than 10000 nM, respectively.
On to `Cc1n[nH]c(C(=O)Nc2cnc3[nH]c(-c4ccccc4F)nc3c2)c1C` [P-2152, N-[2-(2-fluorophenyl)-3H-imidazo[4,5-b]pyridin-6-yl]-3,4-dimethyl-1H-pyrazole-5-carboxamide], for which the IC50 in assay [1] was 0.0001 to 1 µM; in assay [2], less than 10000 nM.
The matching figures for `CCOc1ncc(-c2cc3cc(NC(=O)c4[nH]nc(C)c4C)cnc3[nH]2)cn1` [P-2153, N-[2-(2-ethoxypyrimidin-5-yl)-1H-pyrrolo[2,3-b]pyridin-5-yl]-3,4-dimethyl-1H-pyrazole-5-carboxamide]: 0.0001 to 1 µM and less than 10000 nM.
For `Cc1n[nH]c(C(=O)Nc2cnc3[nH]c(-c4cnc(C(C)C)nc4)cc3c2)c1C` [P-2154, N-[2-(2-isopropylpyrimidin-5-yl)-1H-pyrrolo[2,3-b]pyridin-5-yl]-3,4-dimethyl-1H-pyrazole-5-carboxamide], the figures for the IC50 in assay [1] and in assay [2] were 0.0001 to 1 µM and less than 10000 nM, respectively.
The matching figures for `Cc1n[nH]c(C(=O)Nc2cnc3[nH]c(-c4cnc(C5CC5)nc4)cc3c2)c1C` [P-2155, N-[2-(2-cyclopropylpyrimidin-5-yl)-1H-pyrrolo[2,3-b]pyridin-5-yl]-3,4-dimethyl-1H-pyrazole-5-carboxamide]: 0.0001 to 1 µM and less than 10000 nM.
As to `Cc1n[nH]c(C(=O)Nc2cnc3[nH]c(-c4cnc(NC5CC5)nc4)cc3c2)c1C` [P-2157, N-[2-[2-(cyclopropylamino)pyrimidin-5-yl]-1H-pyrrolo[2,3-b]pyridin-5-yl]-3,4-dimethyl-1H-pyrazole-5-carboxamide], the IC50 in assay [1] was 0.0001 to 1 µM; in assay [2], less than 10000 nM.
The matching figures for `Cc1n[nH]c(C(=O)Nc2cnc3[nH]c(-c4cnc(N5CCOCC5)nc4)cc3c2)c1C` [P-2158, 3,4-dimethyl-N-[2-(2-morpholinopyrimidin-5-yl)-1H-pyrrolo[2,3-b]pyridin-5-yl]-1H-pyrazole-5-carboxamide]: 0.0001 to 1 µM and less than 10000 nM.
The matching figures for `CCc1cc(C(=O)Nc2cnc3[nH]c(-c4ccc(F)cc4)cc3c2)[nH]n1` [P-2159, 3-ethyl-N-[2-(4-fluorophenyl)-1H-pyrrolo[2,3-b]pyridin-5-yl]-1H-pyrazole-5-carboxamide]: 0.0001 to 1 µM and less than 10000 nM.
As to `Cc1cc(C#N)ccc1-c1cc2cc(NC(=O)c3[nH]nc(C)c3C)cnc2[nH]1` [P-2161, N-[2-(4-cyano-2-methyl-phenyl)-1H-pyrrolo[2,3-b]pyridin-5-yl]-3,4-dimethyl-1H-pyrazole-5-carboxamide], the IC50 in assay [1] is 0.0001 to 1 µM; in assay [2] it was less than 10000 nM.
Take `COc1ccc(-c2cc3cc(NC(=O)c4[nH]nc(C)c4C)cnc3[nH]2)c(C)n1` [P-2169, N-[2-(6-methoxy-2-methyl-3-pyridyl)-1H-pyrrolo[2,3-b]pyridin-5-yl]-3,4-dimethyl-1H-pyrazole-5-carboxamide]: the IC50 in assay [1] was 0.0001 to 1 µM; in assay [2] it was less than 10000 nM.
With `O=C(Nc1cnc2[nH]c(-c3ccc(F)cc3)cc2c1)c1cc(C(F)F)n[nH]1` [P-2172, 3-(difluoromethyl)-N-[2-(4-fluorophenyl)-1H-pyrrolo[2,3-b]pyridin-5-yl]-1H-pyrazole-5-carboxamide], the IC50 in assay [1] was 1 to 10 µM; in assay [2] it was less than 10000 nM.
Take `Cc1n[nH]c(C(=O)Nc2cnc3[nH]c(-c4ccnc(C(=O)NC5CC5)c4)cc3c2)c1C` [P-2175, N-cyclopropyl-4-[5-[(3,4-dimethyl-1H-pyrazole-5-carbonyl)amino]-1H-pyrrolo[2,3-b]pyridin-2-yl]pyridine-2-carboxamide]: the IC50 in assay [1] is 0.0001 to 1 µM; in assay [2], less than 10000 nM.
The matching figures for `COc1ccncc1-c1cc2cc(NC(=O)c3[nH]nc(C)c3C)cnc2[nH]1` [P-2185, N-[2-(4-methoxy-3-pyridyl)-1H-pyrrolo[2,3-b]pyridin-5-yl]-3,4-dimethyl-1H-pyrazole-5-carboxamide]: 0.0001 to 1 µM and less than 10000 nM.
